The series concerns rat chronic carcinogenicity bioassay, TD50. In words: DSSTox (CPDBAS) Carcinogenic Potency Database Summary Rat Bioassay Results. The note with it: for outcome: TD50_Rat_Note: no positive results; for Potency: stronger effect = lower value. In a few lines: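 The activity score maps log10(1/TD50_Rat_mmol) linearly onto 1–100; actives without a computed TD50, such as mixtures, receive 50. Source data are chronic rat carcinogenicity tests, using the most positive experiment for each sex.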

The mark [1] stands for this setting: TargetSites_Rat_Female: no positive results.
The mark [2] stands for this setting: TD50_Rat_Note: TD50 is harmonic mean of more than one positive test, TargetSites_Rat_Female: kidney.
[3] abbreviates: TD50_Rat_Note: TD50 is harmonic mean of more than one positive test, TargetSites_Rat_Female: liver.
Setting [4] is: TD50_Rat_Note: TD50 is harmonic mean of more than one positive test, TargetSites_Rat_Female: nasal cavity.
The mark [5] stands for this setting: TD50_Rat_Note: TD50 is harmonic mean of more than one positive test, harmonic mean of TD50 includes a value for upper 99% confidence li, TargetSites_Rat_Female: liver.

Calls of active or inactive are those of the source.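 Rule for the calls: active = at least one rat sex group has a carcinogenic potency value and tumor site recorded; inconclusive = only rat studies were judged inadequate by the national testing program; inactive = no potency or tumor site, with negative rat experiments.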

Regarding `COP(=O)(OC)OC`, under setting [1], the outcome was “inactive; no positive results”.

`ClCC(Cl)Cl`: under setting [1], the outcome is “inactive; no positive results”.

In the case of `CC(=O)OC/C=C(\C)CCC=C(C)C`, the outcome under setting [1] is “inactive; no positive results”.

For the compound `CC(=O)Nc1ccc(OCC(O)CNC(C)C)cc1` (centres undefined), the outcome under setting [1] is “inactive; no positive results”.

As to `[O-][Br+2]([O-])O`, under setting [2], the Potency was 9.82 mg/kg/day.

Consider `O=C(O)COc1ccc(Cl)cc1Cl`, for which the outcome under setting [1] was “inactive; no positive results”.

`C/C=C1/C[C@@H](C)[C@](O)(CO)C(=O)OCC2=CC[N+]3([O-])CC[C@@H](OC1=O)[C@@H]23` (some centres undefined): the Potency under setting [3] is 0.716 mg/kg/day.

In the case of `CC(F)(Cl)Cl`, under setting [1], the Potency is 5260 mg/kg/day.

For the compound `c1ccc(OCC2CO2)cc1` (centres undefined), the Potency under setting [4] is 44 mg/kg/day.

For the compound `C=C(Cl)Cl`, under setting [1], the outcome is “inactive; no positive results”.

On to `O=C1CCCCC1`, for which the outcome under setting [1] was “inactive; no positive results”.

Turning to `CCN(C#N)N=O`, the Potency under setting [4] was 3.68 mg/kg/day.

As for `CC(=O)OC/C=C(C)/C=C/C=C(C)/C=C/C1=C(C)CCCC1(C)C`, the Potency (TD50_Rat_Note: TD50 is harmonic mean of more than one positive test, TargetSites_Rat_Female: adrenal gland) was 125 mg/kg/day.

In the case of `CN(C)CCN(Cc1ccsc1)c1ccccn1`, the outcome under setting [1] is “inactive; no positive results”.

For the compound `C=C1C[C@@]23CC[C@H]4[C@@](C)(CCC[C@@]4(C)C(=O)O[C@@H]4O[C@H](CO)[C@@H](O)[C@H](O)[C@H]4O)[C@@H]2CC[C@]1(O[C@@H]1O[C@H](CO)[C@@H](O)[C@H](O)[C@H]1O[C@@H]1O[C@H](CO)[C@@H](O)[C@H](O)[C@H]1O)C3`, the outcome under setting [1] was “inactive; no positive results”.

Regarding `Oc1ccccc1`, under setting [1], the outcome was “inactive; no positive results”.

Regarding `Cn1c(N)nc2ncc(-c3ccccc3)cc21`, the Potency (TD50_Rat_Note: TD50 is harmonic mean of more than one positive test, TargetSites_Rat_Female: large intestine, mammary gland) was 1.78 mg/kg/day.

With `O=C1C2CC=CCC2C(=O)N1SC(Cl)(Cl)Cl` (centres undefined), the Potency (TD50_Rat_Note: TD50 is harmonic mean of more than one positive test, TargetSites_Rat_Female: uterus) was 2080 mg/kg/day.

As for `Clc1ccc(Sc2cc(Cl)c(Cl)cc2Cl)cc1`, the outcome under setting [1] was “inactive; no positive results”.

Consider `O=C(O)c1ccccc1-c1c2cc(I)c(=O)c(I)c-2oc2c(I)c(O)c(I)cc12`, for which the outcome under setting [1] is “inactive; no positive results”.

In the case of `NCCc1ccc(O)c(O)c1`, the outcome is “inactive; no positive results”.

In the case of `O=C/C=C/O`, where the note is “TD50_Rat_Note: TD50 is harmonic mean of more than one positive test, TargetSites_Rat_Female: thyroid gland”, the Potency is 122 mg/kg/day.

Regarding `CC(C)=NNc1ncc(-c2ccc([N+](=O)[O-])o2)s1`, the Potency (TargetSites_Rat_Female: stomach) is 6.05 mg/kg/day.

With `CCCCC(C)(O)C/C=C/[C@H]1[C@H](O)CC(=O)[C@@H]1CCCCCCC(=O)OC` (some centres undefined), the outcome under setting [1] was “inactive; no positive results”.

Turning to `COC(=O)C(C)(C)Oc1ccc(-c2ccc(Cl)cc2)cc1`, the Potency under setting [5] was 4.78 mg/kg/day.

`CCCCCCCCCCCCC(=O)COC1=C(O)C(=O)O[C@@H]1[C@@H](O)CO`: under setting [1], the outcome was inactive.

Turning to `CCC(CC)C(=O)NC(N)=O`, the outcome was “inactive; no positive results”.

Regarding `C=CCO`, the outcome under setting [1] was “inactive; no positive results”.

`CN(C)C=O`: under setting [1], the outcome is “inactive; no positive results”.

As to `CC(=O)Nc1nc(NC(C)=O)nc(-c2ccc([N+](=O)[O-])o2)n1`, where the note is “TargetSites_Rat_Female: mammary gland”, the Potency is 14.1 mg/kg/day.

Consider `CC1=C(/C=C/C(C)=C/C=C/C(C)=C/C(=O)O)C(C)(C)CCC1`, for which the outcome under setting [1] was “inactive; no positive results”.

Take `C=CCN(CC(C)O)N=O` (centres undefined): the Potency (TargetSites_Rat_Female: esophagus, liver, nasal cavity) was 0.877 mg/kg/day.

On to `O=S(=O)(O)c1c(N=Nc2c(O)ccc3ccccc23)ccc2ccccc12`, for which the outcome under setting [1] is “inactive; no positive results”.

As for `CCCCCC(N)=O`, under setting [1], the outcome is “inactive; no positive results”.

`COc1cc(-c2ccc(N=Nc3c(S(=O)(=O)O)cc4cc(S(=O)(=O)O)cc(N)c4c3O)c(OC)c2)ccc1N=Nc1c(S(=O)(=O)O)cc2cc(S(=O)(=O)O)cc(N)c2c1O`: where the note is “TD50_Rat_Note: TD50 is harmonic mean of more than one positive test, TargetSites_Rat_Female: clitoral gland, ear Zymbals gland, hematopoietic system, large intestine, liver, oral cavity, skin, small intestine, ute”, the Potency was 27.5 mg/kg/day.

With `NCCS(=O)(=O)O`, the outcome under setting [1] was “inactive; no positive results”.

As for `N#Cc1c(Cl)c(Cl)c(Cl)c(C#N)c1Cl`, the Potency under setting [2] was 2270 mg/kg/day.

Consider `CC(=O)Nc1nc(-c2ccc([N+](=O)[O-])o2)cs1`, for which the Potency (TD50_Rat_Note: TD50 is harmonic mean of more than one positive test, TargetSites_Rat_Female: mammary gland) was 17.8 mg/kg/day.

In the case of `CCN(CC)C(=S)S`, the outcome under setting [1] was “inactive; no positive results”.

For the compound `C1CC2OC2CC1C1CO1` (centres undefined), the result under setting [1] was inactive.

On to `CCN(CC)CC#CC(C)(C)OC(=O)C(O)(c1ccccc1)C1CCCCC1` (centres undefined), for which the outcome under setting [1] is “inactive; no positive results”.

On to `CC1=C(C)C(=O)C(C(CCCCCC(=O)O)c2ccccc2)=C(C)C1=O` (centres undefined), for which the outcome under setting [1] is “inactive; no positive results”.

In the case of `Nc1ccc2nc3ccccn3c2n1`, the Potency (TD50_Rat_Note: TD50 is harmonic mean of more than one positive test, TargetSites_Rat_Female: clitoral gland, ear Zymbals gland, large intestine, liver, small intestine) is 42.3 mg/kg/day.

As for `CC1=CC(=C(c2ccc(N)cc2)c2ccc(N)cc2)C=CC1=N`, under setting [1], the outcome was “inactive; no positive results”.

For `C=CCOc1ccc(CC(=O)O)cc1Cl`, under setting [1], the outcome was “inactive; no positive results”.

Turning to `S=c1nc[nH]c2nc[nH]c12`, the outcome under setting [1] was “inactive; no positive results”.

For the compound `CCCCOCCOCCOCc1cc2c(cc1CCC)OCO2`, the Potency under setting [3] is 633 mg/kg/day.

With `O=NN1CCOC1=O`, the Potency (TD50_Rat_Note: TD50 is harmonic mean of more than one positive test, harmonic mean of TD50 includes a value for upper 99% confidence li) was 0.385 mg/kg/day.

`C=C(C)C#N`: the outcome under setting [1] was “inactive; no positive results”.

On to `CCOC(=O)CC(SP(=O)(OC)OC)C(=O)OCC` (centres undefined), for which the outcome under setting [1] was “inactive; no positive results”.

Regarding `Nc1ccc(O)c(N)c1`, the outcome under setting [1] was “inactive; no positive results”.

Consider `Cl`, for which the outcome was “inactive; no positive results”. The outcome under setting [1] was “inactive; no positive results”.

Turning to `C/C=C(\C)C(=O)O[C@@H]1CCN2CC=C(COC(=O)C(O)(C(C)C)C(C)O)[C@H]12` (some centres undefined), the Potency (TD50_Rat_Note: positive test results only by intraperitoneal or intravenous injection) is 1.91 mg/kg/day.

With `Cc1cccc(C)c1`, the Potency (TD50_Rat_Note: TD50 is harmonic mean of more than one positive test, TargetSites_Rat_Female: oral cavity, Maltoni head cancers) was 3110 mg/kg/day. Moreover, the outcome under setting [1] was “inactive; no positive results”.

On to `ClCCCl`, for which the Potency (TD50_Rat_Note: TD50 is harmonic mean of more than one positive test, greater than ten-fold variation among TD50 values for positive res, TargetSites_Rat_Female: mammary gland, subcutaneous tissue) was 14.6 mg/kg/day.

As to `C[C@H]1CCCC(=O)CCC/C=C/c2cc(O)cc(O)c2C(=O)O1`, under setting [1], the outcome is “inactive; no positive results”.

For `O=NN1CCCCC1`, the Potency (TD50_Rat_Note: TD50 is harmonic mean of more than one positive test, TargetSites_Rat_BothSexes: esophagus, liver, nasal cavity) is 1.43 mg/kg/day.

On to `FCCl`, for which the Potency (TD50_Rat_Note: TD50 is harmonic mean of more than one positive test, TargetSites_Rat_Female: stomach) was 27.5 mg/kg/day.

Regarding `CC/C(=C(\c1ccccc1)c1ccc(OCCN(C)C)cc1)c1ccccc1`, the Potency under setting [5] was 3.96 mg/kg/day.

On to `CN(C)c1ccc(C(=O)c2ccc(N(C)C)cc2)cc1`, for which, under setting [3], the Potency was 5.64 mg/kg/day.

Turning to `O=S1(=O)CCCO1`, the Potency (TD50_Rat_Note: TD50 is harmonic mean of more than one positive test, TargetSites_Rat_Female: hematopoietic system, mammary gland, nervous system, small intestine) is 3.84 mg/kg/day.

On to `C=CC(OC(C)=O)c1ccc2c(c1)OCO2` (centres undefined), for which, for the setting “TD50_Rat_Note: TD50 is harmonic mean of more than one positive test”, the Potency is 25 mg/kg/day.

Regarding `Cc1ccc2c(-c3cccc(O)c3)nc(=O)n(C(C)C)c2c1`, the outcome under setting [1] was “inactive; no positive results”.

Turning to `C=CCN(CC(C)=O)N=O`, the Potency (TargetSites_Rat_Female: esophagus, liver) was 0.335 mg/kg/day.

Regarding `N[C@@H](Cc1c[nH]c2ccccc12)C(=O)O`, under setting [1], the outcome was “inactive; no positive results”.

As for `CC(C)(C)NCC(O)c1cc(O)cc(O)c1` (centres undefined), the Potency (TargetSites_Rat_Female: mesovarium) was 410 mg/kg/day.

Regarding `COC(=O)C1=C(C)NC(C)=C(C(=O)OCCN2CCN(C(c3ccccc3)c3ccccc3)CC2)C1c1cccc([N+](=O)[O-])c1` (centres undefined), the outcome under setting [1] is “inactive; no positive results”.

Take `COc1ccccc1N`: the Potency (TD50_Rat_Note: TD50 is harmonic mean of more than one positive test, TargetSites_Rat_Female: urinary bladder) was 29.7 mg/kg/day.

Take `O=C(Nc1ccc2c(c1)Cc1ccccc1-2)C(F)(F)F`: the Potency (TargetSites_Rat_Female: ear Zymbals gland, liver, mammary gland) is 1.62 mg/kg/day.

Regarding `C1CNCCN1`, the outcome under setting [1] is “inactive; no positive results”.

Take `CNCc1ccc(CSCCNC(=NCC(O)c2ccc(O)cc2)NS(C)(=O)=O)o1` (centres undefined): under setting [1], the outcome was “inactive; no positive results”.

As for `O=C(OOC(=O)c1ccccc1)c1ccccc1`, where the note is “TargetSites_Rat_BothSexes: no positive results”, the outcome was inactive.

`CCOc1ccc(NC(C)=O)cc1N`: the outcome under setting [1] is “inactive; no positive results”.

As for `O=C(O)c1cc(N=Nc2ccc(S(=O)(=O)Nc3ccccn3)cc2)ccc1O`, the Potency (TD50_Rat_Note: TD50 is harmonic mean of more than one positive test, TargetSites_Rat_Female: kidney, urinary bladder) was 1590 mg/kg/day.

In the case of `C/C=C/C=C/C(=O)O`, the outcome under setting [1] was “inactive; no positive results”.

As to `NC(N)=O`, the outcome under setting [1] was “inactive; no positive results”.

With `C=CC(=O)c1ccc2c(c1)OCO2`, the outcome was “inactive; no positive results”.
